This note sets out measurements from patent US20240343740A1, “MACROCYCLIC GLUCAGON-LIKE PEPTIDE 1 RECEPTOR AGONISTS” (Eli Lilly and Company, priority 2021, published 2024).

The target of experiment [1] is T1, human GLP-1R (Homo sapiens, UniProt P43220). As to the kind of experiment: Human GLP-1 Receptor HEK293 cell cAMP assay, 104 fmol/mg GLP-1R expression density. The class given is cell-based. Details: expressed in transfected cells; host or cells: HEK293 clonal cell line. To be noted: HEK293 cell line with 104 fmol/mg expression density of GLP-1R; for EC50: geometric mean, read-out: EC50 nM (SEM, n), intracellular cAMP response, relative EC50; for Emax: percent of maximal response to GLP-1(7-36)NH2, arithmetic mean, read-out: Emax % (SEM, n), intracellular cAMP response. Here is the method: (§1) Human GLP-1 Receptor HEK293 Cell cAMP Assay
(§2) GLP-1 Receptor functional activity is determined using cAMP formation in an HEK293 clonal cell line expressing human GLP-1R (NCBI accession number NP_002053) at an expression density of 581±94 (n=6) and 104±12 (n=5) fmol/mg protein (determined using [^125I]GLP-1(7-36)NH2 homologous competition binding analysis). The hGLP-1R receptor expressing cells are treated with compound (20 point concentration-response curve in DMSO, 2.75-fold Labcyte Echo direct dilution, 384 well plate Corning Cat #3570) in DMEM (Gibco Cat #31053) supplemented with 1× GlutaMAX™ (Gibco Cat #35050), 0.1% bovine casein (Sigma C4765-10ML), 250 μM IBMX (3-Isobutyl-1-methylxanthine, Acros Cat #228420010) and 20 mM HEPES (Gibco Cat #15630) in a 20 μL assay volume (final DMSO concentration is 0.5%). After a 30 min incubation at 37° C., the resulting increase in intracellular cAMP is quantitatively determined using the CisBio cAMP Dynamic 2 HTRF Assay Kit (62AM4PEJ). Briefly, cAMP levels within the cell are detected by adding the cAMP-d2 conjugate in cell lysis buffer (10 μL) followed by the antibody anti-cAMP-Eu^3+-Cryptate, also in cell lysis buffer (10 μL). The resulting competitive assay is incubated for at least 60 min at RT, then detected using a PerkinElmer Envision® instrument with excitation at 320 nm and emission at 665 nm and 620 nm. Envision units (emission at 665 nm/620 nm*10,000) are inversely proportional to the amount of cAMP present and are converted to nM cAMP per well using a cAMP standard curve. The amount of cAMP generated (nM) in each well is converted to a percent of the maximal response observed with human GLP-1(7-36)NH2. A relative EC50 value and percent top (Emax) are derived by non-linear regression analysis using the percent maximal response vs. the concentration of compound added, fitted to a four-parameter logistic equation.

Experiment [2] has as its target T1, human GLP-1R. In words: Human GLP-1 Receptor HEK293 cell cAMP assay, 581 fmol/mg GLP-1R expression density. Format: cell-based. Details: expressed in transfected cells; host or cells: HEK293 clonal cell line. To be noted: HEK293 cell line with 581 fmol/mg expression density of GLP-1R; for EC50: geometric mean, read-out: EC50 nM (SEM, n), intracellular cAMP response, relative EC50; for Emax: percent of maximal response to GLP-1(7-36)NH2, arithmetic mean, read-out: Emax % (SEM, n), intracellular cAMP response. Here is the method: as §1, §2

The structures appear in SMILES notation. Where a name gives a salt, the structure may show the parent alone.

T1 sequence (P43220 24-463): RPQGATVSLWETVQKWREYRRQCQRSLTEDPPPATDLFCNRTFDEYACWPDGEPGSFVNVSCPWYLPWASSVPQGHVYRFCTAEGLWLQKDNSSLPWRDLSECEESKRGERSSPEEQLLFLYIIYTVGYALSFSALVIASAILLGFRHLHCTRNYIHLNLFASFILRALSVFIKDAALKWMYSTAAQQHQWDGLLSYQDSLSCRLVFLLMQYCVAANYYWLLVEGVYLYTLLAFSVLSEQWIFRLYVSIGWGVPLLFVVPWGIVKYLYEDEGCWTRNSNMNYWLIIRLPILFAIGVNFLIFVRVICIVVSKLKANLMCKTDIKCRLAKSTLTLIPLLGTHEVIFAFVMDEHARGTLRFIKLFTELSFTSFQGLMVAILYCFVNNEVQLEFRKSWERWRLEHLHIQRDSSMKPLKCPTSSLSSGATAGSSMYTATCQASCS

As for `CS(=O)(=O)c1ccc(-c2ccc3c(c2)CCCOc2cc(ccc2Cc2nc4ccc(C(=O)O)cc4n2C[C@@H]2CCO2)-c2cccc(n2)OC3)cc1` [Example 33, (S)-2-((5^4-(4-(Methylsulfonyl)phenyl)-3,9-dioxa-2(2,6)-pyridina-1(1,3),5(1,2)-dibenzenacyclononaphane-1^4-yl)methyl)-1-(oxetan-2-ylmethyl)-1H-benzo[d]imidazole-6-carboxylic acid], on human GLP-1R [1], the EC50 was 111 nM and the Emax was 85%. Moreover, on human GLP-1R [2], the EC50 was determined as 40.8 nM and the Emax is 112%.
On to `COc1cc(-c2ccc3c(c2)CCCOc2cc(ccc2Cc2nc4ccc(C(=O)O)cc4n2C[C@@H]2CCO2)-c2cccc(n2)OC3)ccn1` [Example 34, (S)-2-((5^4-(2-Methoxypyridin-4-yl)-3,9-dioxa-2(2,6)-pyridina-1(1,3),5(1,2)-dibenzenacyclononaphane-1^4-yl)methyl)-1-(oxetan-2-ylmethyl)-1H-benzo[d]imidazole-6-carboxylic acid], for which, on human GLP-1R [1], the EC50 was 616 nM and the Emax was 82.3%. Also, at human GLP-1R [2], the EC50 is 167 nM and the Emax was 110%.
In the case of `O=C(O)c1ccc2nc(Cc3ccc4cc3OCCCc3cc(-c5cnn(C6CC6)c5)ccc3COc3cccc-4n3)n(C[C@@H]3CCO3)c2c1` [Example 35, (S)-2-((5^4-(1-Cyclopropyl-1H-pyrazol-4-yl)-3,9-dioxa-2(2,6)-pyridina-1(1,3),5(1,2)-dibenzenacyclononaphane-1^4-yl)methyl)-1-(oxetan-2-ylmethyl)-1H-benzo[d]imidazole-6-carboxylic acid], on human GLP-1R [1], the EC50 was 385 nM and the Emax is 88.1%. In addition, on human GLP-1R [2], the EC50 is 95.8 nM and the Emax is 112%.
For the molecule `Cn1cc(-c2ccc3c(c2)CCCOc2cc(ccc2Cc2nc4ccc(C(=O)O)cc4n2C[C@@H]2CCO2)-c2cccc(n2)OC3)ccc1=O` [Example 36, (S)-2-((5^4-(1-Methyl-6-oxo-1,6-dihydropyridin-3-yl)-3,9-dioxa-2(2,6)-pyridina-1(1,3),5(1,2)-dibenzenacyclononaphane-1^4-yl)methyl)-1-(oxetan-2-ylmethyl)-1H-benzo[d]imidazole-6-carboxylic acid], on human GLP-1R [1], the EC50 came to 149 nM and the Emax came out at 80%. Further, on human GLP-1R [2], the EC50 came to 44 nM and the Emax is 108%.
Taken in the same sequence, the figures for `O=C(O)c1ccc2nc(Cc3ccc4cc3OCCCc3cc(-c5cccnc5)ccc3COc3cccc-4n3)n(C[C@@H]3CCO3)c2c1` [Example 37, (S)-1-(Oxetan-2-ylmethyl)-2-((5^4-(pyridin-3-yl)-3,9-dioxa-2(2,6)-pyridina-1(1,3),5(1,2)-dibenzenacyclononaphane-1^4-yl)methyl)-1H-benzo[d]imidazole-6-carboxylic acid] were 506 nM, 79.7%, 179 nM and 103%.
In the same order, the values of `CNC(=O)c1ccc(-c2ccc3c(c2)CCCOc2cc(ccc2Cc2nc4ccc(C(=O)O)cc4n2C[C@@H]2CCO2)-c2cccc(n2)OC3)cc1` [Example 38, (S)-2-((5^4-(4-(Methylcarbamoyl)phenyl)-3,9-dioxa-2(2,6)-pyridina-1(1,3),5(1,2)-dibenzenacyclononaphane-1^4-yl)methyl)-1-(oxetan-2-ylmethyl)-1H-benzo[d]imidazole-6-carboxylic acid] are 613 nM, 56.9%, 300 nM and 90.1%.
Consider `O=C(O)c1ccc2nc(Cc3ccc4cc3OCCCc3cc(-c5ccc(CO)cc5)ccc3COc3cccc-4n3)n(C[C@@H]3CCO3)c2c1` [Example 39, (S)-2-((5^4-(4-(Hydroxymethyl)phenyl)-3,9-dioxa-2(2,6)-pyridina-1(1,3),5(1,2)-dibenzenacyclononaphane-1^4-yl)methyl)-1-(oxetan-2-ylmethyl)-1H-benzo[d]imidazole-6-carboxylic acid], for which, at human GLP-1R [1], the EC50 is 762 nM and the Emax worked out at 76.6%. For the same molecule, at human GLP-1R [2], the EC50 was 244 nM and the Emax amounted to 99%.
Taken in the same sequence, the figures for `Cn1cc(-c2ccc3c(c2)CCCOc2cc(ccc2Cc2nc4ccc(C(=O)O)cc4n2C[C@@H]2CCO2)-c2cccc(n2)OC3)cn1` [Example 40, (S)-2-((5^4-(1-Methyl-1H-pyrazol-4-yl)-3,9-dioxa-2(2,6)-pyridina-1(1,3),5(1,2)-dibenzenacyclononaphane-1^4-yl)methyl)-1-(oxetan-2-ylmethyl)-1H-benzo[d]imidazole-6-carboxylic acid] were 154 nM, 85.9%, 42.4 nM and 110%.
On to `N#Cc1ccc2c(c1)CCCOc1cc(ccc1Cc1nc3ccc(-c4nnn[nH]4)cc3n1C[C@@H]1CCO1)-c1cccc(n1)OC2` [Example 41, (S)-1^4-((1-(Oxetan-2-ylmethyl)-6-(1H-tetrazol-5-yl)-1H-benzo[d]imidazol-2-yl)methyl)-3,9-dioxa-2(2,6)-pyridina-1(1,3),5(1,2)-dibenzenacyclononaphane-5^4-carbonitrile], for which, on human GLP-1R [1], the EC50 turned out to be 713 nM and the maximal effect (Emax) came to 60.3%. On human GLP-1R [2], the EC50 turned out to be 184 nM and the Emax was found to be 89.1%.
Consider `N#Cc1ccc2c(c1)OCCc1cc(c(F)cc1Cc1nc3ccc(C(=O)O)cc3n1C[C@@H]1CCO1)-c1cccc(n1)OC2` [Example 42, (S)-2-((5^4-Cyano-1^6-fluoro-3,6-dioxa-2(2,6)-pyridina-1(1,3),5(1,2)-dibenzenacyclooctaphane-1^4-yl)methyl)-1-(oxetan-2-ylmethyl)-1H-benzo[d]imidazole-6-carboxylic acid], for which the figures for the EC50 on human GLP-1R [1] and on human GLP-1R [2] were 539 nM and 187 nM, respectively. Also, the Emax on human GLP-1R [1] is 66.4%; at human GLP-1R [2], 103%.
Turning to `COc1cc(C(=O)O)cc2c1nc(Cc1cc(F)c3cc1OCCCc1cc(C#N)cnc1COc1cccc-3n1)n2C[C@@H]1CCO1` [Example 43, (S)-2-((5^5-Cyano-1^6-fluoro-3,9-dioxa-2(2,6),5(2,3)-dipyridina-1(1,3)-benzenacyclononaphane-1^4-yl)methyl)-4-methoxy-1-(oxetan-2-ylmethyl)-1H-benzo[d]imidazole-6-carboxylic acid diformate salt], at human GLP-1R [1], the EC50 turned out to be 194 nM and the Emax was determined as 72%. Further, at human GLP-1R [2], the EC50 came to 48.6 nM and the Emax is 86.9%.
On to `COc1cc(C(=O)O)cc2c1nc(Cc1cc(F)c3cc1CCOCc1cc(C#N)ccc1COc1cccc-3n1)n2C[C@@H]1CCO1` [Example 44, (S)-2-((5^4-Cyano-1^6-fluoro-3,7-dioxa-2(2,6)-pyridina-1(1,3),5(1,2)-dibenzenacyclononaphane-1^4-yl)methyl)-4-methoxy-1-(oxetan-2-ylmethyl)-1H-benzo[d]imidazole-6-carboxylic acid], for which the EC50 on human GLP-1R [1] amounted to 16.4 nM; on human GLP-1R [2], 4.14 nM. Also, the results for the Emax at human GLP-1R [1] and at human GLP-1R [2] were 85.5% and 112%, respectively.
As for `COCCOc1cc(C(=O)O)cc2c1nc(Cc1cc(F)c3cc1COCCc1cc(Cl)cc(F)c1COc1cccc-3n1)n2C[C@@H]1CCO1` [Example 45, (S)-2-((5^4-Chloro-1^6,5^6-difluoro-3,8-dioxa-2(2,6)-pyridina-1(1,3),5(1,2)-dibenzenacyclononaphane-1^4-yl)methyl)-4-(2-methoxyethoxy)-1-(oxetan-2-ylmethyl)-1H-benzo[d]imidazole-6-carboxylic acid], the EC50 at human GLP-1R [1] is 7.57 nM; at human GLP-1R [2], 2.4 nM. Also, the Emax on human GLP-1R [1] was found to be 87.9%; at human GLP-1R [2], 122%.
Taken in the same sequence, the figures for `COCCOc1cc(C(=O)O)cc2c1nc(Cc1ccc3cc1COCCc1nc(ccc1C#N)COc1cccc-3n1)n2C[C@@H]1CCO1` [Example 46, (S)-2-((5^5-Cyano-3,8-dioxa-2,5(2,6)-dipyridina-1(1,3)-benzenacyclononaphane-1^4-yl)methyl)-4-(2-methoxyethoxy)-1-(oxetan-2-ylmethyl)-1H-benzo[d]imidazole-6-carboxylic acid] were 24.6 nM, 7.23 nM, 91.7% and 107%.
